According to the supplement of paper PMC9013687:

Key:
[1] = test system: Danio rerio embryo; conditions: exposure time: 4 dpf
Description: (§1)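 Zebrafish embryos (UFZ-OBI strain) were exposed from 2 hpf for 48 h (2 dpf) or 96 h (4 dpf) at 28 °C; spontaneous tail coiling was scored at 25 hpf. Morphological features from automated image analysis (FishInspector), heart rate and locomotor response were fitted with drc models. Quantal endpoints were dichotomised at 2.5 SD from controls and fitted with a log-logistic model; heart rate, pigmentation and STC were normalised to the replicate control mean. Betamethasone was tested as betamethasone dipropionate, diflorasone as diflorasone diacetate.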

[2] = test system: Danio rerio embryo
Description: as §1

[3] = test system: Danio rerio embryo; experiment: EC50 Head size_Decrease
Description: as §1

[4] = test system: Danio rerio embryo; experiment: EC10 Heart rate; higher = less potent
Description: as §1

[5] = test system: Danio rerio embryo; experiment: EC10 Lack of SB; higher = less potent; conditions: exposure time: 4 dpf
Description: as §1

[6] = test system: Danio rerio embryo; experiment: EC20 Lack of SB; higher = less potent; conditions: exposure time: 4 dpf
Description: as §1

[7] = test system: Danio rerio embryo; experiment: EC20 Heart rate; higher = less potent
Description: as §1

[8] = test system: Danio rerio embryo; experiment: EC10 STC increase; higher = less potent; conditions: exposure time: 25 h
Description: as §1

[9] = test system: Danio rerio embryo; experiment: EC20 STC increase; higher = less potent; conditions: exposure time: 25 h
Description: as §1

[10] = test system: Danio rerio embryo; experiment: EC20 Eye size_Decrease; higher = less potent
Description: as §1

[11] = test system: Danio rerio embryo; experiment: EC10 Eye size_Decrease; higher = less potent
Description: as §1

[12] = test system: Danio rerio embryo; experiment: EC20 Head size_Decrease; higher = less potent
Description: as §1

[13] = test system: Danio rerio embryo; experiment: EC10 Head size_Decrease; higher = less potent
Description: as §1

[14] = test system: Danio rerio embryo; experiment: EC10 Pigmentation increase; higher = less potent; conditions: exposure time: 4 dpf
Description: as §1

[15] = test system: Danio rerio embryo; experiment: EC20 Pigmentation increase; higher = less potent; conditions: exposure time: 4 dpf
Description: as §1

[16] = test system: Danio rerio embryo; remark: listed apart in the source
Description: as §1

[17] = test system: Danio rerio embryo; experiment: EC10 STC decrease; higher = less potent; conditions: exposure time: 25 h
Description: as §1

[18] = test system: Danio rerio embryo; experiment: EC20 STC decrease; higher = less potent; conditions: exposure time: 25 h
Description: as §1

[19] = test system: Danio rerio embryo; experiment: EC10 Pigmentation decrease; higher = less potent
Description: as §1

[20] = test system: Danio rerio embryo; experiment: EC20 Pigmentation decrease; higher = less potent
Description: as §1

[21] = test system: Danio rerio embryo; experiment: EC10 Head trunk angle_Decrease; higher = less potent; conditions: exposure time: 2 dpf
Description: as §1

[22] = test system: Danio rerio embryo; experiment: EC20 Head trunk angle_Decrease; higher = less potent; conditions: exposure time: 2 dpf
Description: as §1

[23] = test system: Danio rerio embryo; experiment: EC50 Mandibular arch distance_Decrease; conditions: exposure time: 4 dpf
Description: as §1

[24] = test system: Danio rerio embryo; experiment: EC10 LMR ligth decrease; higher = less potent; conditions: exposure time: 4 dpf
Description: as §1

[25] = test system: Danio rerio embryo; experiment: EC20 LMR ligth decrease; higher = less potent; conditions: exposure time: 4 dpf
Description: as §1

[26] = test system: Danio rerio embryo; experiment: EC20 Mandibular arch distance_Decrease; higher = less potent; conditions: exposure time: 4 dpf
Description: as §1

[27] = test system: Danio rerio embryo; experiment: EC10 Mandibular arch distance_Decrease; higher = less potent; conditions: exposure time: 4 dpf
Description: as §1

[28] = test system: Danio rerio embryo; experiment: EC20 LMR ligth increase; higher = less potent; conditions: exposure time: 4 dpf
Description: as §1

[29] = test system: Danio rerio embryo; experiment: EC10 LMR ligth increase; higher = less potent; conditions: exposure time: 4 dpf
Description: as §1

| SMILES | EC50 Lack of SB [1] [µM] | EC50 Heart rate ([2]; exposure time: 2 dpf) [µM] | EC50 Head size Decrease ([3]; exposure time: 2 dpf) [µM] | EC50 Head size Decrease ([3]; exposure time: 4 dpf) [µM] | EC10 Heart rate ([4]; exposure time: 2 dpf) [µM] | EC10 Heart rate ([4]; exposure time: 4 dpf) [µM] | EC10 Lack of SB [5] [µM] | EC20 Lack of SB [6] [µM] | EC20 Heart rate ([7]; exposure time: 2 dpf) [µM] | EC20 Heart rate ([7]; exposure time: 4 dpf) [µM] | EC10 STC increase [8] [µM] | EC20 STC increase [9] [µM] | EC20 Eye size Decrease ([10]; exposure time: 2 dpf) [µM] | EC20 Eye size Decrease ([10]; exposure time: 4 dpf) [µM] | EC10 Eye size Decrease ([11]; exposure time: 2 dpf) [µM] | EC10 Eye size Decrease ([11]; exposure time: 4 dpf) [µM] | EC20 Head size Decrease ([12]; exposure time: 2 dpf) [µM] | EC20 Head size Decrease ([12]; exposure time: 4 dpf) [µM] | EC10 Head size Decrease ([13]; exposure time: 2 dpf) [µM] | EC10 Head size Decrease ([13]; exposure time: 4 dpf) [µM] | EC10 Pigmentation increase [14] [µM] | EC20 Pigmentation increase [15] [µM] | EC50 Pigmentation decrease ([16]; exposure time: 4 dpf) [µM] | EC50 Heart rate ([2]; exposure time: 4 dpf) [µM] | EC10 STC decrease [17] [µM] | EC20 STC decrease [18] [µM] | EC10 Pigmentation decrease ([19]; exposure time: 4 dpf) [µM] | EC20 Pigmentation decrease ([20]; exposure time: 4 dpf) [µM] | EC10 Head trunk angle Decrease [21] [µM] | EC20 Head trunk angle Decrease [22] [µM] | EC50 Mandibular arch distance Decrease [23] [µM] | EC10 LMR ligth decrease [24] [µM] | EC20 LMR ligth decrease [25] [µM] | EC10 Pigmentation decrease ([19]; exposure time: 2 dpf) [µM] | EC20 Pigmentation decrease ([20]; exposure time: 2 dpf) [µM] | EC20 Mandibular arch distance Decrease [26] [µM] | EC10 Mandibular arch distance Decrease [27] [µM] | EC50 Pigmentation decrease ([16]; exposure time: 2 dpf) [µM] | EC20 LMR ligth increase [28] [µM] | EC10 LMR ligth increase [29] [µM] |
| --- | --- | --- | --- | --- | --- | --- | --- | --- | --- | --- | --- | --- | --- | --- | --- | --- | --- | --- | --- | --- | --- | --- | --- | --- | --- | --- | --- | --- | --- | --- | --- | --- | --- | --- | --- | --- | --- | --- | --- | --- |
| O=C(O)CCc1nc(-c2ccccc2)c(-c2ccccc2)o1 [Oxaprozin] | 10.5 | 150 | 26.6 | 43.4 | 28 | 23 | 7.85 | 8.73 | 52.1 | 29.1 | 6.23 | 12.4 | 61.2 | 22.7 | 53.1 | 20.6 | 15.1 | 19.7 | 10.8 | 12.4 | 29.2 | 31 | – | – | – | – | – | – | – | – | – | – | – | – | – | – | – | – | – | – |
| CCOC(=O)N1CCC(=C2c3ccc(Cl)cc3CCc3cccnc32)CC1 [Loratadine] | 0.282 | 14.8 | 12.7 | 14.1 | 1.01 | 1.1 | 0.167 | 0.202 | 2.72 | 2.18 | – | – | 6.71 | 5.96 | 5.86 | 5.5 | 4.61 | 8.95 | 2.55 | 6.85 | – | – | 9.57 | 7.03 | 3.8 | 4.66 | 8.11 | 8.62 | 4.17 | 5.06 | – | – | – | – | – | – | – | – | – | – |
| CC(C)(C)C(O)/C(=C/c1ccc(Cl)cc1Cl)n1cncn1 (stereo not drawn) [Diniconazole] | – | – | 5.99 | – | 4.6 | 5.23 | – | – | 6.61 | 7 | 6.86 | 7.82 | 6.78 | 3.61 | 6.22 | 2.97 | 4.37 | – | 3.64 | – | 2.49 | 4.99 | – | 11.3 | – | – | – | – | 2.62 | 3.2 | 6.4 | 0.478 | 0.855 | 6.17 | 7.3 | 3.04 | 1.96 | – | – | – |
| CCCNCC(O)COc1ccccc1C(=O)CCc1ccccc1 (stereo not drawn) [Propafenone] | 7.65 | 52.1 | – | 31 | 1 | 2.29 | 6.08 | 6.61 | 4.31 | 4.78 | – | – | – | – | – | – | – | 18.3 | – | 13.4 | 23.1 | 26.5 | – | 16.8 | 6.36 | 13.3 | – | – | – | – | – | – | – | 43 | 49.3 | – | – | 62.3 | 17.3 | 16.4 |
| CSc1nc2cc(Cl)c(Oc3cccc(Cl)c3Cl)cc2[nH]1 [Triclabendazole] | 0.516 | 3.71 | – | – | 0.345 | 0.19 | 0.462 | 0.481 | 0.829 | 0.364 | – | – | 1.42 | 0.512 | 1.27 | 0.448 | – | – | – | – | 0.654 | 0.667 | – | 1.11 | 0.00111 | 0.00782 | – | – | 1.39 | 1.6 | – | 0.783 | 0.792 | 1.44 | 1.6 | – | – | 1.92 | – | – |
